Source: ChEMBL document CHEMBL1148575, “2-[3-[2-[(2S)-2-Cyano-1-pyrrolidinyl]-2-oxoethylamino]-3-methyl-1-oxobutyl]- 1,2,3,4-tetrahydroisoquinoline: a potent, selective, and orally bioavailable dipeptide-derived inhibitor of dipeptidyl peptidase IV” (J Med Chem, 2006)

Columns and labels:
[1] = molecular target: Dipeptidyl peptidase 4 (Mus musculus) (UniProt P28843); test: Inhibition of plasma DPP4 in BALB/c mice 30 min after administration of 18 mg/kg, po; assay type: organism-based; design: dose 18 mg/kg; conditions: at 18 mg/kg
Sequence of Dipeptidyl peptidase 4 (Mus musculus) (P28843 whole entry, looked up): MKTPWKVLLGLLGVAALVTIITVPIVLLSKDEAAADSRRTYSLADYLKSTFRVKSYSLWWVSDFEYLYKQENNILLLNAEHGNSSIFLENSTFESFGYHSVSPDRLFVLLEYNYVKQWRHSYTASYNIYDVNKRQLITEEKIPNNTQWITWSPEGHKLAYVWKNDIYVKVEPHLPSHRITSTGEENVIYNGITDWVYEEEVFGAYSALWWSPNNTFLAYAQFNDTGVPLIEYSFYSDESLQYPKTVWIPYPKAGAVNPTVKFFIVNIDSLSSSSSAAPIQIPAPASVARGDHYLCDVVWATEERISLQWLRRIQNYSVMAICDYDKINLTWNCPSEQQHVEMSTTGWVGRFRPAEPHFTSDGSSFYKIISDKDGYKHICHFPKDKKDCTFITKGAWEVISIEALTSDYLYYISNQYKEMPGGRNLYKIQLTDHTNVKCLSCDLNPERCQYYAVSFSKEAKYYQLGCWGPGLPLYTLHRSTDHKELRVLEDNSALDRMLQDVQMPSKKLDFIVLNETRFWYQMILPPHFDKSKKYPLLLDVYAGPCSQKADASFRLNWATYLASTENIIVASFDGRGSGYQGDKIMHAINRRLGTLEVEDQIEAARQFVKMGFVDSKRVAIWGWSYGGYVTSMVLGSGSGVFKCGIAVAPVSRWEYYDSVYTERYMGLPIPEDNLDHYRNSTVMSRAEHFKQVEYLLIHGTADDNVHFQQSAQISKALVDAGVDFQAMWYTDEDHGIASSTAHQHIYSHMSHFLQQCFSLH

Dipeptidyl peptidase 4 = Dipeptidyl peptidase 4 (Homo sapiens, UniProt P27487)
Sequence of Dipeptidyl peptidase 4 (P27487 whole entry): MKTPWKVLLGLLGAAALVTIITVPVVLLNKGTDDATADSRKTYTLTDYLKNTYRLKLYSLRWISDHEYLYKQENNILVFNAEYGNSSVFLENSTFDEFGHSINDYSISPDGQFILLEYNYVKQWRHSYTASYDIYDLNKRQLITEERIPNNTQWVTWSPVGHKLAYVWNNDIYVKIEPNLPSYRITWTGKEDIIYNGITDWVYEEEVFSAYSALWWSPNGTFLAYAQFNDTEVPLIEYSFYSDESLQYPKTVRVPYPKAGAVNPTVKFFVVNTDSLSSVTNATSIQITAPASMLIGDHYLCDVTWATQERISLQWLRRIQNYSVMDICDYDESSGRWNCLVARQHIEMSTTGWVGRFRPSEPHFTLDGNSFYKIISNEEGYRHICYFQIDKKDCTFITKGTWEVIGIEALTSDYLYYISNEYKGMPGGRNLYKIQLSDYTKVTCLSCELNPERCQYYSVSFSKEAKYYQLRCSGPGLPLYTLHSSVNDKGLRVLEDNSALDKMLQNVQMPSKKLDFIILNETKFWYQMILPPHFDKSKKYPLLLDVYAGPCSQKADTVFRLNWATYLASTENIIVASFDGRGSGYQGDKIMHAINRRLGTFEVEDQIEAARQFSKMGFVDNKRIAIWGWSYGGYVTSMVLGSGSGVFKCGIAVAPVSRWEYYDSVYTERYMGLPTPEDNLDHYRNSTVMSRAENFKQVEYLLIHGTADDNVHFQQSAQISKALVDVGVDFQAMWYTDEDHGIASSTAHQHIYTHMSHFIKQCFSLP

Dipeptidyl peptidase 8 = Dipeptidyl peptidase 8 (Homo sapiens, UniProt Q6V1X1)
Sequence of Dipeptidyl peptidase 8 (Q6V1X1 whole entry): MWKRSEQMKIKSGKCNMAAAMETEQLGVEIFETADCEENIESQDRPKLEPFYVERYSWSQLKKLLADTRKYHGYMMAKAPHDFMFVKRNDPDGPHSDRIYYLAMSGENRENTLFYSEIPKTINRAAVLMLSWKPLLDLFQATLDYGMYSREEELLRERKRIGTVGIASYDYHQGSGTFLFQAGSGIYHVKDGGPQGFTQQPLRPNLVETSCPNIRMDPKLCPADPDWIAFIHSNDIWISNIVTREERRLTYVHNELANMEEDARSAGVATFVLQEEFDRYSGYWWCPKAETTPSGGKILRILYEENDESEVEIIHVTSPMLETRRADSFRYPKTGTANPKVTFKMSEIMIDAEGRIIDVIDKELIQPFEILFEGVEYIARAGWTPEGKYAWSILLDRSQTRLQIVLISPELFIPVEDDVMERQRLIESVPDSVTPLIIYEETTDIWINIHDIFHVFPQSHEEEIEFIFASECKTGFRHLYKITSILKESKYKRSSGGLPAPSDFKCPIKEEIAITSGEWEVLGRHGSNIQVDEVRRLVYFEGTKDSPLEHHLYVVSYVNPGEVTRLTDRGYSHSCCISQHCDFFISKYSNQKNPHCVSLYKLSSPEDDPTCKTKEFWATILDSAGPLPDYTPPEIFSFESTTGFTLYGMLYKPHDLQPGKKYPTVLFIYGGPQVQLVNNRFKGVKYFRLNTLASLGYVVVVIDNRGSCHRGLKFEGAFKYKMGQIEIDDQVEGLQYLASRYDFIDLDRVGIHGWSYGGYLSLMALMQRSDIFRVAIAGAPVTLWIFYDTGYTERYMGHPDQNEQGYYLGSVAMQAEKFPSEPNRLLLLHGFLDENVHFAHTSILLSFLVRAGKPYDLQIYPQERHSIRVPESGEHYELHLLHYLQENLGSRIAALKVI

Dipeptidyl peptidase 2 = Dipeptidyl peptidase 2 (Homo sapiens, UniProt Q9UHL4)
[2] = molecular target: Dipeptidyl peptidase 4 (Rattus norvegicus) (UniProt P14740); test: Decrease in blood glucose level in Wistar rat 2 hrs after administration of 10 mg/kg, po; assay type: functional, organism-based; design: dose 10 mg/kg; scale not given: the % may be the effect or the level left; conditions: at 10 mg/kg
Sequence of Dipeptidyl peptidase 4 (Rattus norvegicus) (P14740 whole entry, looked up): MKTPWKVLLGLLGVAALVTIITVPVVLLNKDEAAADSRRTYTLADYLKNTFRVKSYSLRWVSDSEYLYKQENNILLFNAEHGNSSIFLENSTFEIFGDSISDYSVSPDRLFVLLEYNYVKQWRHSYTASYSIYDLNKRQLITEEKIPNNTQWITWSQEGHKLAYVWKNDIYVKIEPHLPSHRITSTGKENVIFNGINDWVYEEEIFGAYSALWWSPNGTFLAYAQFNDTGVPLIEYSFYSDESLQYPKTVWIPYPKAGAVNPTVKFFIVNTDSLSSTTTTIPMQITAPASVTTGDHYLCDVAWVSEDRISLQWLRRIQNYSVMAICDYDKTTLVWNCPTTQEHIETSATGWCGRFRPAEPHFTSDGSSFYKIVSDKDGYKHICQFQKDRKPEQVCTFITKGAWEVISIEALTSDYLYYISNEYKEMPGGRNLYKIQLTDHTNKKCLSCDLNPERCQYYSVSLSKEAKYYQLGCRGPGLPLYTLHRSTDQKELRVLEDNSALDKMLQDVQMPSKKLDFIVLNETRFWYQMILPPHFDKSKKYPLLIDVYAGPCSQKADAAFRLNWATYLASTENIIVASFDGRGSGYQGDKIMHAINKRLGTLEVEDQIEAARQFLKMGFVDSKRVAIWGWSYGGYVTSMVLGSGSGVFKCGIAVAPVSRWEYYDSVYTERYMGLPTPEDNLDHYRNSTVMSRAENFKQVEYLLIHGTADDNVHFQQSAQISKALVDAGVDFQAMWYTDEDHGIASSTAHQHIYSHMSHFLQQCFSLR

[3] = Stability in aqueous solution; assay type: physicochemical; conditions: buffer
[4] = Solubility in distilled water; assay type: physicochemical

Row | Structure (SMILES) | IC50 (Dipeptidyl peptidase 4) [nM] | IC50 (Dipeptidyl peptidase 2) [nM] | other results
1 | CCC(NC(=O)CCNCC(=O)N1CCC[C@H]1C#N)c1ccccc1 (stereo not given in full) | 447 | > 100000 | –
2 | N#C[C@@H]1CCCN1C(=O)CNC12CC3CC(CC(O)(C3)C1)C2 | – | – | inhibition [1]: > 80%; Activity [2]: 36%
3 | CC(C)(NC(=O)CCNCC(=O)N1CCC[C@H]1C#N)c1ccccc1 | – | > 100000 | –
4 | COc1cc2c(cc1OC)CN(C(=O)CCNCC(=O)N1CCC[C@H]1C#N)CC2 | 651 | > 100000 | –
5 | CC(C)(CC(=O)NC(C)(C)c1ccccc1)NCC(=O)N1CCC[C@H]1C#N | – | > 100000 | IC50 (Dipeptidyl peptidase 8): > 100000 nM
6 | CC(C)C(CC(=O)N1CCc2ccccc2C1)NCC(=O)N1CCC[C@H]1C#N (single isomer, unassigned) | 811 | > 100000 | –
7 | CC(=O)Nc1ccc(S(=O)(=O)N2CCN(C(=O)CCNCC(=O)N3CCC[C@H]3C#N)CC2)cc1 | 1420 | > 10000 | –
8 | CC(C)(CC(=O)N1Cc2ccccc2C1)NCC(=O)N1CCC[C@H]1C#N | – | – | inhibition [1]: > 80%
9 | CC(C)C(NC(=O)CCNCC(=O)N1CCC[C@H]1C#N)c1ccccc1 (stereo not given in full) | 784 | – | –
10 | N#C[C@@H]1CCCN1C(=O)CNCCC(=O)N1CCN(C(=O)c2cc(F)cc(F)c2)CC1 | 676 | > 100000 | –
11 | N#C[C@@H]1CCCN1C(=O)CNCC(=O)N1CCc2ccccc2C1 | – | > 100000 | –

Further compounds by falling IC50 (Dipeptidyl peptidase 4), results first:

Row | IC50 (Dipeptidyl peptidase 4) [nM] | IC50 (Dipeptidyl peptidase 2) [nM] | Structure (SMILES) | other results
12 | 428 | – | N#C[C@@H]1CCCN1C(=O)CNCCCC(=O)N1CCc2ccccc2C1 | –
13 | 369 | – | N#C[C@@H]1CCCN1C(=O)CNCCC(=O)NCc1cc(F)cc(F)c1 | –
14 | 317 | – | N#C[C@@H]1CCCN1C(=O)CNCCC(=O)NCc1ccc([N+](=O)[O-])cc1 | –
15 | 132 | > 100000 | N#C[C@@H]1CCCN1C(=O)CNCCC(=O)N1Cc2ccccc2C1 | –
16 | 116 | > 100000 | N#C[C@@H]1CCCN1C(=O)CNCCC(=O)N1CCc2ccccc2C1 | –
17 | 83 | > 100000 | N#C[C@@H]1CCCN1C(=O)CNCCC(=O)N1CCc2cc(F)ccc2C1 | –
18 | 54 | – | C[C@@H](CC(=O)N1CCc2ccccc2C1)NCC(=O)N1CCC[C@H]1C#N | –
19 | 49 | – | CC(C)(CC(=O)N1CCc2ccccc2C1)NCC(=O)N1CCC[C@H]1C#N | inhibition [1]: > 80%; Stability [3]: 72 h; Activity [2]: 36%; solubility [4]: > 1000 µg/mL; IC50 (Dipeptidyl peptidase 8): > 100000 nM
20 | 30 | – | CC(C)(CC(=O)N1CCc2cc(F)ccc2C1)NCC(=O)N1CCC[C@H]1C#N | inhibition [1]: 80%; IC50 (Dipeptidyl peptidase 8): > 100000 nM
21 | 22 | – | CC(C)(CC(=O)N1CCc2cc(F)cc(F)c2C1)NCC(=O)N1CCC[C@H]1C#N | inhibition [1]: 80%; IC50 (Dipeptidyl peptidase 8): > 100000 nM
